In PMC11373198, “In vitro efficacy of next-generation dihydrotriazines and biguanides against babesiosis and malaria parasites” (Antimicrobial Agents and Chemotherapy, 2024):
Where two headings read alike, the source gives them in different places.

Tests used:
[1] = test system: P. falciparum HB3; assay: In vitro growth inhibition of P. falciparum HB3 (SYBR Green-I); assay type: cell-based, Plasmodium falciparum; conditions: DFS20 medium, read-out: PfHB3 (IC50 in nM)
[2] = test system: P. falciparum Dd2; assay: In vitro growth inhibition of P. falciparum Dd2 (SYBR Green-I); assay type: cell-based, Plasmodium falciparum; conditions: DFS20 medium, read-out: PfDd2 (IC50 in nM)
[3] = test system: B. MO1; assay: In vitro growth inhibition of B. MO1 in human erythrocytes (SYBR Green-I); assay type: cell-based, Babesia MO1; conditions: DFS20 medium
Method: (§1) The effect of DHT derivatives on the intraerythrocytic development of P. falciparum, B. duncani, B. divergens and B. MO1 and the determination of IC50 values were conducted as previously reported ([54], [67]). Briefly, the parasites cultured in vitro (0.1% parasitemia with 5% hematocrit in complete DFS20 medium or RPMI-1640) were treated with various concentrations of the compounds in a 96-well plate and incubated at 37 °C for either 60 h in the case of B. duncani or 72 h in the case of P. falciparum. Parasitemia was then determined using the SYBR Green-I method by adding an equal volume of parasite culture to the lysis buffer (0.008% saponin, 0.08% Triton-X-100, 20 mM Tris-HCl (pH = 7.5), and 5 mM EDTA) containing SYBR Green-I (0.01%). The mixture was then incubated at 37°C for 1 h in the dark. The fluorescence was measured at 480 nm (excitation) and 540 nm (emission) using a BioTek Synergy™ Mx Microplate Reader. Background fluorescence from uninfected erythrocytes maintained in a complete DFS20 and RPMI-1640 medium was subtracted from each sample, and the 50% inhibitory concentration (IC50) of the drug was determined by plotting drug concentrations versus parasite growth using GraphPad Prism 9.2.1. Data are shown as mean ± SD from two biological replicates with three technical replicates.

[4] = test system: human cell lines (HepG2, HCT-116, HEK-293, and HeLa); assay: Cytotoxicity on human cell lines, average / overall, and therapeutic index; assay type: cell-based; conditions: HepG2, HCT-116, HEK-293, HeLa, MTT 72 h
Method: HeLa, HepG2, HEK293, and HCT116 cell lines were obtained from the American Type Culture Collection (ATCC) and maintained in Dulbecco’s modified Eagle’s medium (DMEM) (Invitrogen 11995–065) containing 25 mM glucose, 1 mM sodium pyruvate, and supplemented with 5 mM HEPES, 10% FBS, and penicillin-streptomycin (50 U/mL penicillin, 50 µg/mL streptomycin). Cells were seeded in a 96-well tissue culture plate (20,000 cells per well) and allowed to adhere for 24 hours, after which they were treated with a 12-step 2-fold serial dilution of each drug starting at 1 mM as the highest final concentration. Cells maintained in the medium supplemented with either 0.1% or 10% DMSO were used as negative and positive vehicle controls, respectively. The plates were incubated at 37 °C for 72 h, after which each well was incubated with 0.5 mg/mL of MTT reagent (MP Chemicals #02102227) for 4 h in the dark at 37 °C. The formazan crystals formed by living cells were solubilized with the addition of 100 µL of DMSO to each well. We measured the OD590nm using a SpectraMax plate reader. From the obtained OD values, percent cell viability was estimated by normalizing to the mean of 10% DMSO wells (set as 100% toxicity) and mean of the vehicle control wells (set as 0% toxicity). Dose-response curves were plotted using GraphPad Prism version 9.1.2.

[5] = test system: B. divergens (Rouen87); assay: In vitro growth inhibition of B. divergens in human erythrocytes (SYBR Green-I); assay type: cell-based; conditions: Babesia divergens, Erythrocyte, DFS20 medium
Method: as §1

[6] = test system: B. duncani (WA-1); assay: In vitro growth inhibition of B. duncani in human erythrocytes (SYBR Green-I); assay type: cell-based, Babesia duncani; conditions: for IC50: 60 h; for activity against B. duncani, structure-activity relationship: analogs compared within screening, 2-chloro, 4-trifluoromethoxy series or terminal aryl heterocycles
[7] = test system: P. falciparum 3D7; assay: In vitro growth inhibition of P. falciparum 3D7 (SYBR Green-I); assay type: cell-based, Plasmodium falciparum
[8] = test system: B. microti; design: method as in PMID 7447406; conditions: Mongolian jirds; cited from earlier work
[9] = test system: Babesia gibsoni; design: method as in PMID 18794380, PMID 21904052; conditions: cited from earlier work
[10] = test system: Babesia bovis; design: method as in PMID 18794380, PMID 21904052; conditions: cited from earlier work
[11] = test system: B. duncani; design: method as in PMID 37055610; conditions: previous studies; read-out: IC50 against B. duncani; cited from earlier work
[12] = Plasmodium falciparum, HB3, 72 h
[13] = Plasmodium falciparum, DD2, 72 h
[14] = Babesia duncani, Erythrocyte, read-out: B. duncani WA1 (IC50 in nM), DFS20 medium, 60 h
[15] = Plasmodium falciparum, 3D7, 72 h, DFS20 medium, 72 h, read-out: Pf3D7 (IC50 in nM)
[16] = Plasmodium falciparum, 3D7, DFS20, Table S3, read-out: P.falciparum 3D7 (IC50 in nM), DFS20
[17] = Plasmodium falciparum, 3D7, RPMI-1640 + 10% human serum, read-out: P.falciparum 3D7 (IC50 in nM), RPMI-1640 + 10%human serum

| Structure (SMILES) | IC50 [1, 12] [nM] | IC50 [2, 13] [nM] | IC50 ([3]; Babesia, Erythrocyte) [nM] | IC50 [4] [nM] | IC50 [5] [nM] | IC50 [6, 14] [nM] | IC50 [7, 15] [nM] | IC50 [7, 16] [nM] | IC50 [7, 17] [nM] | activity against B. duncani, structure-activity relationship [6] | IC50 ([1]; 72 h) [nM] | IC50 ([2]; 72 h) [nM] | IC50 [3] [nM] | IC50 ([6]; read-out: B. duncani WA1 (IC50 in nM), DFS20 medium) [nM] | IC50 ([7]; DFS20 medium, 72 h, read-out: Pf3D7 (IC50 in nM)) [nM] | activity against B. microti infection [8] | inhibition of in vitro parasite growth of Babesia gibsoni [9] | inhibition of in vitro parasite growth of Babesia bovis [10] | IC50 [11] [nM] |
| --- | --- | --- | --- | --- | --- | --- | --- | --- | --- | --- | --- | --- | --- | --- | --- | --- | --- | --- | --- |
| CC1(C)N=C(N)N=C(N)N1OCCCOc1ccc(Cl)cc1Cl [JPC-210] | 0.4 ± 0.07 | 0.05 ± 0.01 | 0.8 ± 0.24 | 69000 | 3.1 ± 1.42 | 3.6 ± 0.42 | 3.1 ± 1.24 | 1.6 ± 0.025 | 1.2 ± 0.1 |  |  |  |  |  |  |  |  |  |  |
| COc1ccc(OCCCON2C(N)=NC(N)=NC2(C)C)cc1 [JPC-1044] | 0.42 ± 0.25 | 0.6 ± 0.14 | 0.2 ± 0.15 | 62000 | 12 ± 0.16 | 7.1 ± 0.32 | 3.3 ± 2 | 2 ± 0.02 | 3.8 ± 0.022 |  |  |  |  |  |  |  |  |  |  |
| CC1(C)N=C(N)N=C(N)N1OCCCOc1ccc(-n2cncn2)cc1 [JPC-1059] | 0.3 ± 0.17 | 0.3 ± 0.02 | 5.4 ± 1.4 | 132000 | 3.7 ± 0.7 | 10.3 ± 0.7 | 2 ± 0.64 | 1.3 ± 0.09 | 1.4 ± 0.021 | beneficial |  |  |  |  |  |  |  |  |  |
| CC1(C)N=C(N)N=C(N)N1OCCCOc1ccc(Cl)c(C#N)c1 [JPC-2053] | 0.75 ± 0.34 | 0.5 ± 0.045 | 0.6 ± 0.5 | 26000 | 6.6 ± 1.7 | 13.4 ± 1.41 | 2.6 ± 1.51 | 1.5 ± 0.071 | 1.4 ± 0.021 |  |  |  |  |  |  |  |  |  |  |
| CC1(C)N=C(N)N=C(N)N1OCCCOc1ccccc1OC(F)(F)F [JPC-2060] | ~0.6 | ~0.4 | ~0.5 | 15000 | ~4 | ~0.8 | ~1.9 | 1.9 ± 0.29 | 0.8 ± 0.17 |  | 0.7 ± 0.1 | 0.77 ± 0.4 | 0.6 ± 0.07 | 1 ± 0.06 | 2.3 ± 0.5 |  |  |  |  |
| CCC(C)C1(C)N=C(N)N=C(N)N1OCCCOc1cc(Cl)c(Cl)cc1Cl (centres unmarked) [JPC-2748] | 0.41 ± 0.07 | 12 ± 1.13 | 4 ± 0.74 | 1500 | 3.7 ± 0.3 | 4.4 ± 0.01 | 3 ± 0.77 | 0.2 ± 0.12 | 2 ± 0.061 |  |  |  |  |  |  |  |  |  |  |
| CC1(C)N=C(N)N=C(N)N1OCCCOc1ccc(-c2nnnn2C(C)(C)C)cc1 [JPC-3671] | 0.4 ± 0.02 | 17 ± 1.5 | 6.5 ± 0.7 | 38000 | 24 ± 2.14 | 1.6 ± 0.5 | 1 ± 0.32 | 2.1 ± 0.016 | 2.6 ± 0.02 | beneficial |  |  |  |  |  |  |  |  |  |
| NC1=NC(c2ccc(F)cc2)N(OCCCOc2ccc(OC(F)(F)F)cc2Cl)C(N)=N1 (centres unmarked) [JPC-3680] | 2.1 ± 0.33 | 37 ± 1.25 | 6 ± 0.5 | 10000 | 40 ± 0.7 | 3.2 ± 0.21 | 1.7 ± 0.7 | 1.2 ± 0.03 | 1.8 ± 0.3 | increased activity |  |  |  |  |  |  |  |  |  |
| NC1=NC(c2cccnc2)N(OCCCOc2ccc(OC(F)(F)F)cc2Cl)C(N)=N1 (centres unmarked) [JPC-3681] | 0.8 ± 0.07 | 0.45 ± 0.03 | 1 ± 0.07 | 38000 | 6.4 ± 0.7 | 2 ± 0.2 | 2.3 ± 0.3 | 0.7 ± 0.072 | 1 ± 0.08 | increased activity |  |  |  |  |  |  |  |  |  |
| Nc1ccc(S(=O)(=O)c2ccc(N)cc2)cc1 [dapsone] |  |  |  |  |  |  |  |  |  |  |  |  |  |  |  | little to no activity |  |  |  |
| CN(Cc1cnc2nc(N)nc(N)c2n1)c1ccc(C(=O)N[C@@H](CCC(=O)O)C(=O)O)cc1 [methotrexate] |  |  |  |  |  |  |  |  |  |  |  |  |  |  |  |  | moderate to effective inhibition | moderate to effective inhibition |  |
| CCc1nc(N)nc(N)c1-c1ccc(Cl)cc1 [pyrimethamine, 2,4-Diamino-5-(4-chlorophenyl)−6-ethylpyrimidine] |  |  |  |  |  |  |  |  |  |  |  |  |  |  |  | little to no activity | moderate to effective inhibition | moderate to effective inhibition | 940 |
| Cc1cc(NS(=O)(=O)c2ccc(N)cc2)no1 [sulfamethoxazole] |  |  |  |  |  |  |  |  |  |  |  |  |  |  |  | little to no activity |  |  |  |
| COc1cc(Cc2cnc(N)nc2N)cc(OC)c1OC [trimethoprim] |  |  |  |  |  |  |  |  |  |  |  |  |  |  |  | little to no activity | moderate to effective inhibition | moderate to effective inhibition |  |
